Assay results as given in patent US11028095B2, “Spiro-lactam and bis-spiro-lactam NMDA receptor modulators and uses thereof” (Aptinyx Inc., priority 2016, dated 2021).
Where two headings read alike, the source gives them in different places. Values belong to the compound of their own block, whether it stands above or below them.

How the values were obtained:
IV pharmacokinetics = format: in vivo; design: C0: unit: ng/mL; conditions: Sprague Dawley rats, 2 mg/kg, normal saline
Method: Sprague Dawley rats were dosed intravenously using a normal saline formulation containing 2 mg/kg of the compounds identified in the below table. The table below summarizes the results of the IV pharmacokinetics.

[1] = Microsomal stability (Human); format: in vitro ADME; conditions: human microsomes
Method: (§1) Microsomal stability of disclosed compounds was investigated. The following table indicates the percent of compound remaining after 60 minutes.

[2] = Oral pharmacokinetics (plasma, brain, CSF); format: in vivo; design: Cmax: unit: ng/mL; conditions: Sprague Dawley rats, per os, 10 mg/kg; for Tmax: normal saline
Method: In another experiment, Sprague Dawley rats were dosed per os using a normal saline formulation containing 10 mg/kg of the compounds identified in the table below. Plasma, brain, and CSF samples were analyzed at various time points over a 24 hour period. The table below summarizes the results of the oral pharmacokinetics.

[3] = system: positive (hedonic) 50-kHz ultrasonic vocalizations (USVs); test: Positive Emotional Learning (PEL) test; format: in vivo; conditions: rat, PO, dose 0.1 mg/kg, one hour after administration
Method: Experiments were conducted as described in Burgdorf et al., “The effect of selective breeding for differential rates of 50-kHz ultrasonic vocalizations on emotional behavior in rats,” Devel. […] Rat 50-kHz ultrasonic vocalization (hedonic USVs) is a validated model for the study of positive affective state and is best elicited by rough-and-tumble play.
The PEL assay measures the acquisition of positive (hedonic) 50-kHz ultrasonic vocalizations (USVs) to a social stimulus, heterospecific rough and tumble play stimulation. Heterospecific rough-and-tumble play stimulation was administered by the experimenter's right hand. One hour after administration of test compound or vehicle negative control (0.5% sodium carboxymethyl cellulose in 0.9% sterile saline vehicle), animals received 3 min of heterospecific rough-and-tumble play that consisted of alternating 15 sec blocks of heterospecific play and 15 sec of no-stimulation. […] Frequency modulated 50-kHz USVs that occurred during each of the no-stimulation periods were quantified to measure PEL. Animals were not habituated to play stimulation before testing. Positive emotional learning was measured during the conditioned stimulus (CS) trials preceding the tickle unconditioned stimulus (UCS) trials. Animals received 15 second trials consisting of 6 CS and 6 UCS trials each (3 min total).

[4] = target: T1, NMDAR2A expressing HEK cell membranes (Homo sapiens, UniProt Q12879); test: NMDAR agonist assay, [3H]MK-801 binding, NMDAR2A; format: biochemical; conditions: 50 μM glutamate
T1 construct: expressed in transfected cells; host or cells: HEK cells (membrane extract)
Method: (§2) (nonequilibrium conditions).
(§3) The baseline value was determined from the best fit curve of the DPM values modeled using the GraphPad program and the log(agonist) vs. response(three parameters) algorithm was then subtracted from all points in the dataset.

[5] = target: T2, NMDAR2B expressing HEK cell membranes (Homo sapiens, UniProt Q13224); test: NMDAR agonist assay, [3H]MK-801 binding, NMDAR2B; format: biochemical; conditions: 50 μM glutamate
T2 construct: expressed in transfected cells; host or cells: HEK cells (membrane extract)
T2 sequence (Q13224 27-1484, other chains not shown): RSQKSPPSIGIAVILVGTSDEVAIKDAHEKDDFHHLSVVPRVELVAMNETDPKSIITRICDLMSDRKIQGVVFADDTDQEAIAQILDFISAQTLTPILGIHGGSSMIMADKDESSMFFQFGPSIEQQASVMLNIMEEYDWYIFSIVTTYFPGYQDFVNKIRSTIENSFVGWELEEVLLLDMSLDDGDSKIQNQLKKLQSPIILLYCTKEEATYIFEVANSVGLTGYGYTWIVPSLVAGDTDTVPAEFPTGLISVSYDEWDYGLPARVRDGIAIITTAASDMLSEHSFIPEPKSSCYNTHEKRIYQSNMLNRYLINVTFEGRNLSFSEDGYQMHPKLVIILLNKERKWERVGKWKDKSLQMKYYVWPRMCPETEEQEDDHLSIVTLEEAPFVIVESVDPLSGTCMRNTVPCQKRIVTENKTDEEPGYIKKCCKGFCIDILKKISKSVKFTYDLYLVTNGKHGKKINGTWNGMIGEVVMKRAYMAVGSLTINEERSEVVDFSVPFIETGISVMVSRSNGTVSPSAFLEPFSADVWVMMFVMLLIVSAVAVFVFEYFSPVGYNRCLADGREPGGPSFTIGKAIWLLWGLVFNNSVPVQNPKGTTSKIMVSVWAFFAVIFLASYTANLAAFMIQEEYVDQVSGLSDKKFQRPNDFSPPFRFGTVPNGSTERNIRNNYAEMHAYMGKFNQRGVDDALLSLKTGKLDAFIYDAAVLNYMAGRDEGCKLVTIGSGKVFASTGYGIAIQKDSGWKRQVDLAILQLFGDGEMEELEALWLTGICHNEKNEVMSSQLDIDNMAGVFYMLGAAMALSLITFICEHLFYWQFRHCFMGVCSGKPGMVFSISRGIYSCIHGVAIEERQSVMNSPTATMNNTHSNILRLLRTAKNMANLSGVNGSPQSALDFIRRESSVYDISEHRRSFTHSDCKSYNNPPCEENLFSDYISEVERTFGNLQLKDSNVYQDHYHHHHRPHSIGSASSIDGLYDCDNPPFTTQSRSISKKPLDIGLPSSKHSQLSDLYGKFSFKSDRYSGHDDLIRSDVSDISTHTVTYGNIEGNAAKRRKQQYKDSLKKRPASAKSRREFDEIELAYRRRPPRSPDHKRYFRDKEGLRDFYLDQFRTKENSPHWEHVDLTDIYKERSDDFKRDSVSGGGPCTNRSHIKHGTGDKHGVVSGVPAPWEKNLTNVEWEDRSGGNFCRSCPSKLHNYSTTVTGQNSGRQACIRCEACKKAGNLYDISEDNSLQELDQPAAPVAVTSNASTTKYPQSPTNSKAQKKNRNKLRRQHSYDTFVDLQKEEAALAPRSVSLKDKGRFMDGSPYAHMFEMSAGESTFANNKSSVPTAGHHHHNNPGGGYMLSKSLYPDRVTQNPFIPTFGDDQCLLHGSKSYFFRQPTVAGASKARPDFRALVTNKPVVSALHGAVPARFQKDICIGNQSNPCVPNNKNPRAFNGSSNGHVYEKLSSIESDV
Method: as §2, §3

[6] = Microsomal stability (Rat); format: in vitro ADME; conditions: rat microsomes
Method: as §1

Plasma stability (Human) = format: in vitro ADME
Method: (§4) Plasma stability of disclosed compounds was investigated. The following table indicates the percent of compound remaining after 60 minutes.

Plasma stability (Rat) = format: in vitro ADME
Method: as §4

[7] = target: T3, NMDAR2A expressing HEK cell membranes (Homo sapiens, UniProt Q05586+Q12879); test: NMDAR agonist assay, [3H]MK-801 binding, NMDAR2A; format: biochemical; conditions: 50 μM glutamate; for EC50: [3H]MK-801 binding, read-out: NMDAR2A: log EC50 (converted); for Emax: relative to 1 mM glycine, read-out: NMDAR2A: % maximal [3H]MK-801 binding relative to 1 mM glycine
T3 construct: expressed in transfected cells; host or cells: HEK cells (membrane extract)
Method: as §2, §3

[8] = target: T4, NMDAR2B expressing HEK cell membranes (Homo sapiens, UniProt Q05586+Q13224); test: NMDAR agonist assay, [3H]MK-801 binding, NMDAR2B; format: biochemical; conditions: 50 μM glutamate; [3H]MK-801 binding; read-out: NMDAR2B log EC50 (converted)
T4 construct: expressed in transfected cells; host or cells: HEK cells (membrane extract)
T4 sequence (Q13224 27-1484, other chains not shown): as above
Method: as §2, §3

[9] = target: T5, NMDAR2D expressing HEK cell membranes (Homo sapiens, UniProt O15399+Q05586); test: NMDAR agonist assay, [3H]MK-801 binding, NMDAR2D; format: biochemical; conditions: 50 μM glutamate; for EC50: [3H]MK-801 binding, read-out: NMDAR2D: log EC50 (converted); for Emax: relative to 1 mM glycine, read-out: NMDAR2D: % maximal [3H]MK-801 binding relative to 1 mM glycine
T5 construct: expressed in transfected cells; host or cells: HEK cells (membrane extract)
T5 sequence (O15399 28-1336, other chains not shown): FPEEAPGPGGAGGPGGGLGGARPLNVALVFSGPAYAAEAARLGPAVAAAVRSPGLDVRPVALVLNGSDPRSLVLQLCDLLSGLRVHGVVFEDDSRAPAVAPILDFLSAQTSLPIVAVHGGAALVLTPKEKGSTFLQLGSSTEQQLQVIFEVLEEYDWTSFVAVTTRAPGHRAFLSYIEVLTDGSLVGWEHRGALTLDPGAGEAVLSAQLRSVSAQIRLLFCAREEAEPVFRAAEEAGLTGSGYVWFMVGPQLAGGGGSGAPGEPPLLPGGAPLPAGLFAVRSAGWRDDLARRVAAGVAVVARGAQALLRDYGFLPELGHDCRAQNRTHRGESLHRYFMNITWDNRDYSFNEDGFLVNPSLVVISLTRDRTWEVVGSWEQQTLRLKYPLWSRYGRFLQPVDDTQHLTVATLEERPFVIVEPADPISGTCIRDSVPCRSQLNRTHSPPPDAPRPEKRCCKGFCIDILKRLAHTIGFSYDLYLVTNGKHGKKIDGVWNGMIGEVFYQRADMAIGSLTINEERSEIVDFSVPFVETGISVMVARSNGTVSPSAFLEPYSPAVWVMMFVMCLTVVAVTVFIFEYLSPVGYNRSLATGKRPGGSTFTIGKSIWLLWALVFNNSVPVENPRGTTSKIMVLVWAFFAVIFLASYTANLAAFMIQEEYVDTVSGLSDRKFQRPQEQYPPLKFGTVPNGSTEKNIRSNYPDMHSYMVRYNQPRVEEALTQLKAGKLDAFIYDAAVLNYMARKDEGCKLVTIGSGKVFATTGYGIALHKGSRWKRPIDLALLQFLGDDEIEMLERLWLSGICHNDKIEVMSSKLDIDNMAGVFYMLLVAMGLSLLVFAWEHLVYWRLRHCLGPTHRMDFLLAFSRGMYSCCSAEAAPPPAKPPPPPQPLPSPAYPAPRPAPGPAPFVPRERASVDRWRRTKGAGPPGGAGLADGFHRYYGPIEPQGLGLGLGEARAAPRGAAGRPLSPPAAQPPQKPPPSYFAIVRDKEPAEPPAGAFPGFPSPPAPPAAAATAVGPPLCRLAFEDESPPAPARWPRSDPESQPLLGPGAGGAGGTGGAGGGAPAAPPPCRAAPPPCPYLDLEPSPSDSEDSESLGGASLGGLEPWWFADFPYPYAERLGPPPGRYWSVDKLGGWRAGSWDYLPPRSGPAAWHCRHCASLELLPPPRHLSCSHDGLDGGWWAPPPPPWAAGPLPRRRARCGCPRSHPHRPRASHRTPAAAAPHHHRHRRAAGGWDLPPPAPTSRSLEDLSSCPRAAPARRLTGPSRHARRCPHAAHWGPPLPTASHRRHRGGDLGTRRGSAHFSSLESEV
Method: as §2, §3

[10] = Sprague Dawley, rat, in vivo, iv
[11] = Sprague Dawley, rat, plasma, po

SMILES: CC(C)(C)OC(=O)N1C(C(N)=O)CCC12CNC2=O (single isomer, unassigned) [BE]
EC50 [9]: < 1 nM
Emax [9]: < 100%
Emax [7]: < 100%
EC50 [8]: > 100 nM
NMDAR2B: % maximal [3H]MK-801 binding relative to 1 mM glycine [5]: − (−=0)

SMILES: CC(C)(C)OC(=O)N1C(C(N)=O)CCC12CNC2=O (single isomer, unassigned) [BF]
EC50 [7]: < 1 nM
NMDAR2A: % maximal [3H]MK-801 binding relative to 1 mM glycine [4]: + (<100%=+)
EC50 [8]: < 1 nM
NMDAR2B: % maximal [3H]MK-801 binding relative to 1 mM glycine [5]: + (<100%=+)

SMILES: C[C@@H](O)[C@H](NCC1CCC2(CNC2=O)N1C(=O)OC(C)(C)C)C(=O)N(C)C (single isomer, unassigned) [BS]
EC50 [7]: > 100 nM
NMDAR2A: % maximal [3H]MK-801 binding relative to 1 mM glycine [4]: − (−=0)
EC50 [8]: < 1 nM
NMDAR2B: % maximal [3H]MK-801 binding relative to 1 mM glycine [5]: + (<100%=+)

SMILES: C[C@@H](O)[C@H](NCC1CCC2(CNC2=O)N1C(=O)OC(C)(C)C)C(=O)N(C)C (single isomer, unassigned) [BT]
EC50 [7]: < 1 nM
NMDAR2A: % maximal [3H]MK-801 binding relative to 1 mM glycine [4]: + (<100%=+)
EC50 [8]: > 100 nM
NMDAR2B: % maximal [3H]MK-801 binding relative to 1 mM glycine [5]: − (−=0)

Further lines, with some results ahead:

AUClast (IV pharmacokinetics): 2601.7 ng·h/mL
C0 (IV pharmacokinetics): 5143.2 ng/mL
Cl (IV pharmacokinetics): 12.82 mL/min/kg
T1/2 (IV pharmacokinetics): 35.4 min
Vss (IV pharmacokinetics): 0.36 L/kg
Microsomal (Human): percent of compound remaining after 60 minutes [1]: 100%
% F [2]: 5%
AUClast [2]: 599.6 ng·h/mL
CSF Cmax [2]: 0 ng/mL
Brain Cmax [2]: 0 ng/mL
Tmax [2]: 64.8 min
Cmax ([2]; plasma): 144.2 ng/mL
EC50 ([4]; [3H]MK-801 binding, read-out: NMDAR2A: log EC50 (converted)): < 1 nM
NMDAR2A: % maximal [3H]MK-801 binding relative to 1 mM glycine [4]: + (<100%=+)
EC50 ([5]; [3H]MK-801 binding, read-out: NMDAR2B log EC50 (converted)): < 1 nM
NMDAR2B: % maximal [3H]MK-801 binding relative to 1 mM glycine [5]: + (<100%=+)
Microsomal (Rat): percent of compound remaining after 60 minutes [6]: 100%
Plasma (Human): percent of compound remaining after 60 minutes (Plasma stability (Human)): 100%
Plasma (Rat): percent of compound remaining after 60 minutes (Plasma stability (Rat)): 95%
SMILES: C[C@@H](O)[C@H](NC(=O)C1CCC2(CNC2=O)N1)C(N)=O (single isomer, unassigned) [AQ-2]
Max Effect (mean number of 50 kHz USVs per 15 seconds) ([3]; 0.1 mg/kg): * (*: 6-10.9)

AUC(0-t) (IV pharmacokinetics; [10]): 2800 ng·h/mL
clearance (IV pharmacokinetics; [10]): 11.8 mL/min/kg
half-life (IV pharmacokinetics; [10]): 190 min
C0 (IV pharmacokinetics; Sprague Dawley, rat, in vivo, iv, read-out: C0): 2230 ng/mL
Vd (IV pharmacokinetics; Sprague Dawley, rat, in vivo, iv, read-out: Vss): 0.61 L/kg
Microsomal (Human): percent of compound remaining after 60 minutes [1]: 84%
CSF Cmax [2]: 0 ng/mL
Brain Cmax [2]: 0 ng/mL
AUC(0-t) [2, 11]: 367 ng·h/mL
bioavailability [2, 11]: 3%
Tmax ([2]; Sprague Dawley, rat, plasma, po, read-out: Tmax): 49.8 min
Cmax ([2]; Sprague Dawley, rat, plasma, po, plasma, read-out: Cmax): 75.4 ng/mL
EC50 [7]: < 1 nM
NMDAR2A: % maximal [3H]MK-801 binding relative to 1 mM glycine [4]: + (<100%=+)
EC50 [8]: < 1 nM
NMDAR2B: % maximal [3H]MK-801 binding relative to 1 mM glycine [5]: + (<100%=+)
Microsomal (Rat): percent of compound remaining after 60 minutes [6]: 100%
Plasma (Human): percent of compound remaining after 60 minutes (Plasma stability (Human)): 100%
Plasma (Rat): percent of compound remaining after 60 minutes (Plasma stability (Rat)): 100%
SMILES: CC(C)C(=O)N1C(C(=O)N[C@H](C(N)=O)[C@@H](C)O)CCC12CNC2=O (single isomer, unassigned) [AS]
Max Effect (mean number of 50 kHz USVs per 15 seconds) [3]: ** (**: 11-16.9)

EC50 [9]: < 1 nM
Emax [9]: < 100%
EC50 [7]: < 1 nM
Emax [7]: < 100%
EC50 [8]: > 100 nM
NMDAR2B: % maximal [3H]MK-801 binding relative to 1 mM glycine [5]: − (−=0)
SMILES: CC(C)CN1C(C(=O)N[C@H](C(N)=O)[C@@H](C)O)CCC12CNC2=O (single isomer, unassigned) [BA]
